pKd: −log10 of the molar value. Where a SMILES comes first, the peptide text is derived from it. Bridges are numbered along the chain shown (N, C = ends).
Target: Toll-like receptor 4 (Homo sapiens, UniProt O00206)
Experiment: Binding affinity to recombinant human TLR4 assessed as dissociation constant up to 200 uM by surface plasmon resonance analysis

Chain of Toll-like receptor 4 (O00206 whole entry): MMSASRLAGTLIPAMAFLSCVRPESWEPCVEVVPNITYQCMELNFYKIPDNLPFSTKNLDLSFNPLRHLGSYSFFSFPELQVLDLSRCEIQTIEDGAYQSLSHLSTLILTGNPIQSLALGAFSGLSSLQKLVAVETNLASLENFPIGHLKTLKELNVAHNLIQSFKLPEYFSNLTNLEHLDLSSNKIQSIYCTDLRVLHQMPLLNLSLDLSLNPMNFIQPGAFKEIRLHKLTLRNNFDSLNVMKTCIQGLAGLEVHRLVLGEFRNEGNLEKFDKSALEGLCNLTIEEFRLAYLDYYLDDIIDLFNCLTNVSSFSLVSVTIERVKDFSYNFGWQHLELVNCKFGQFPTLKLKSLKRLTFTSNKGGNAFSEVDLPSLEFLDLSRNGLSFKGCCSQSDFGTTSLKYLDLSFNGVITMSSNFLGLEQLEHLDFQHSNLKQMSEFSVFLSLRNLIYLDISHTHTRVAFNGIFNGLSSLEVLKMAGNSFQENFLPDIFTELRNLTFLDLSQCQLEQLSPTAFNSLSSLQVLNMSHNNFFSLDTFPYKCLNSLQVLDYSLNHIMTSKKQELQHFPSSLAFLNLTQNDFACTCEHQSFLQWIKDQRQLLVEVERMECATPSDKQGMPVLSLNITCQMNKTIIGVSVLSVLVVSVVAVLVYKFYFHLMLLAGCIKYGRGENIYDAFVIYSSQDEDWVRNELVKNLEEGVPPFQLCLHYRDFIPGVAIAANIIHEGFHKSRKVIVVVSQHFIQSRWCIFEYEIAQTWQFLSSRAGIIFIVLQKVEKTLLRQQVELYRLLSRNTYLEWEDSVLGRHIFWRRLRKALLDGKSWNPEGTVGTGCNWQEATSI

pKd	Compound
8.85	CC[C@H](C)[C@@H]1NC(=O)[C@H](Cc2c[nH]c3ccccc23)NC(=O)[C@H](Cc2c[nH]c3ccccc23)NC(=O)[C@@H](NC(=O)[C@H](CO)NC(=O)[C@H](Cc2ccccc2)NC(=O)[C@@H](NC(=O)CNC(=O)[C@@H](N)CC(C)C)C(C)C)CC(=O)NCCCC[C@@H](C(=O)N[C@@H](CC(C)C)C(=O)N[C@H](C(=O)O)C(C)C)NC1=O (H-LGVFSDWWIKLV-OH; lactam 6-10)
8.96	H-LGVFSSWWIKLV-OH
